In EPA's ToxValDB 9.5 (doi:10.2903/j.efsa.2019.5842):
In brackets after ≈: the same amount, converted by molar mass.

Columns and labels:
Tagia sp. = conditions: chronic/long-term; duration: 56 days; reproduction
Daphnia magna = conditions: chronic/long-term; duration: 21 days; reproduction
Apis mellifera = conditions: acute, mortality
Oncorhynchus mykiss [1] = conditions: acute; duration: 96 hours; mortality
Oryctolagus sp. = conditions: reproduction developmental; body weight
Hyalella azteca = conditions: chronic/long-term; duration: 42 days
Folsomia candida = conditions: chronic/long-term; duration: 28 days; reproduction
Oncorhynchus mykiss [2] = assay: LC10; higher = less toxic; conditions: chronic/long-term; mortality

Q: Which LD50 (Rattus norvegicus; acute, oral, mortality) does the source give for `CCCCN(CC)c1c([N+](=O)[O-])cc(C(F)(F)F)cc1[N+](=O)[O-]` [Benfluralin] here?
A: Its LD50 is greater than 5000 mg/kg-day.

Q: What about the NOAEL (Rattus norvegicus; chronic, duration: 2 years, histopathology: nonneoplastic) of the same molecule?
A: The NOAEL was 0.5 mg/kg-day.

Q: What about the NOAEL (Rattus norvegicus; reproduction developmental, body weight) of the same molecule?
A: The NOAEL was 5.5 mg/kg-day.

Q: And the LD50 (Colinus virginianus; acute, oral, mortality)?
A: Its LD50 is greater than 2000 mg/kg-day.

Q: What about the NOEL (Colinus virginianus; reproduction developmental) of the same molecule?
A: Its NOEL is 6.7 mg/kg-day.

Q: What about the NOEC (Tagia sp.) of the same molecule?
A: The NOEC was 15.4 mg/kg.

Q: What about the NOEC (Daphnia magna) of the same molecule?
A: Its NOEC is 0.046 mg/L.

Q: What about the LD50 (Apis mellifera; dermal) of the same molecule?
A: Its LD50 is greater than 100 µg/piece.

Q: What about the LD50 (Apis mellifera; oral, unspecified) of the same molecule?
A: Its LD50 is greater than 111 µg/piece.

Q: And the LC50 (Oncorhynchus mykiss [1])?
A: The LC50 was 0.081 µg/mL (≈ 0.242 µM).

Q: And the NOAEL (Oryctolagus sp.)?
A: The NOAEL was 50 mg/kg-day.

Q: And the NOEC (Hyalella azteca)?
A: Its NOEC is 83 mg/kg.

Q: And the NOEC (Folsomia candida)?
A: The NOEC was 5.5 mg/kg.

Q: What about the LC10 (Oncorhynchus mykiss [2]) of the same molecule?
A: Its LC10 is 0.0013 µg/mL (≈ 0.00388 µM).
